Values quoted from earlier work in patent US20260114445A1, “STABLE ANTIMICROBIAL FORMULATION CONCENTRATE” (Kimberly-Clark Worldwide, Inc., priority 2020, published 2026).

Details: temperature not given

- water solubility: approximately 0.14%
SMILES: CCCCCCCC(=O)NO [Caprylhydroxamic Acid]
